pIC50, pKd: −log10 of the molar value. Like-named read-outs stand apart in the source and are kept apart here.
Key:
[1] = Maximum tolerated dose in mice; conditions: CD-1 athymic nude, mouse, in vivo, iv
Description: (§1) FIG. 1 are the results of an AMO-1 myeloma cell line xenograft study with a compound of Formula X and with an MCL1 inhibitor being tested in humans and available as catalog number HY-112218 on Oct. 2, 2020 (MedChemExpress LLC, New Jersey, USA). Eight mice were used per group, and mice were dosed by intravenous injection (IV) daily (QD) for the first 5 days of the study with various concentrations of the compound of Formula X or with HY-112218. The 10 mg/kg dose of HY-112218 and the 60 mg/kg dose of the compound of Formula X are about the maximum tolerated dose for mice and represent a theoretical efficacious dose for humans.

[2] = system: AMO-1 myeloma cell line xenograft; test: AMO-1 myeloma cell line xenograft study; assay type: in vivo; conditions: AMO-1 xenograft, mice, IV QD for the first 5 days
Description: FIG. 1 are the results of an AMO-1 myeloma cell line xenograft study with a compound of Formula X. Eight mice were used per group, and mice were dosed by intravenous injection (IV) daily (QD) for the first 5 days of the study with various concentrations of the compound of Formula X.
as §1
Xenograft models of human cancer cell lines were established in six-week-old CD-1 athymic nude mice by subcutaneous injection of 1.0-3.0×10^7 cells with or without 50% matrigel. […] Tumor xenografts were measured with calipers three times per week, and tumor volume (in mm^3) was determined by multiplying height×width×length. […] Data were analyzed using StudyLog software from StudyDirector (San Francisco, Calif.).

MCL1 = MCL1 (Homo sapiens, UniProt Q07820); test: MCL1 affinity assay (competition binding, qPCR readout); conditions: recombinant MCL1, 11-point 3-fold dilution series
Summary of the method: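 Kds derived from an 11-point 3-fold compound series measured by qPCR of protein eluted from ligand beads. Recombinant, DNA-tagged protein from E. coli or HEK-293 was mixed with compound and peptide-liganded beads in SeaBlock/PBS/Tween/DTT buffer for 1 hour at room temperature (0.9% DMSO).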

BCL2 = BCL2 (Homo sapiens, UniProt P10415); test: BCL2 affinity assay (competition binding, qPCR readout); conditions: recombinant BCL2, 11-point 3-fold dilution series
Description: (§2) Recombinant MCL1, BCL2 and BCXL proteins were prepared in either an E. coli host derived from the BL21 strain or in HEK-293 cells. The recombinant proteins were subsequently tagged with DNA for qPCR detection. Streptavidin-coated magnetic beads were treated for 30 minutes at room temperature with the respective biotinylated peptide ligands for each recombinant protein to generate affinity resins for the assays. The liganded beads were blocked with excess biotin and washed with blocking buffer (SeaBlock (Pierce), 1% BSA, 0.05% Tween 20, 1 mM DTT) to remove unbound ligand and to reduce nonspecific binding. Binding reactions were assembled by combining recombinant protein, liganded affinity beads, and test compounds in 1× binding buffer (20% SeaBlock, 0.17×PBS, 0.05% Tween 20, 6 mM DTT). Test compounds were prepared as 111X stocks in 100% DMSO. The compounds were then diluted directly into the assays such that the final concentration of DMSO was 0.9%. The assay plates were incubated at room temperature with shaking for 1 hour and the affinity beads were washed with wash buffer (1×PBS, 0.05% Tween 20). The beads were then re-suspended in elution buffer (1×PBS, 0.05% Tween 20, 0.5 μM non-biotinylated affinity ligand) and incubated at room temperature with shaking for 30 minutes. The recombinant protein concentration in the eluates was measured by qPCR. Kds were determined using an 11-point 3-fold compound dilution series with three DMSO control points.

[3] = system: drug-sensitive cell lines of Table 3; test: Cell line growth retardation assay, sensitive cohort; assay type: cell-based, Human; conditions: for pIC50: arithmetic mean of IC50s over the sensitive cohort of Table 3, 6 days growth, read-out: AvgSen IC50; for Fold Diff: average IC50 of resistant cohort divided by average IC50 of sensitive cohort
Summary of the method: (§3)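 Over 6 days of treatment at six concentrations (0.0032–10 μM), given after a 24 h post-seeding rest, population doublings were counted by imaging against a pre-dose baseline and compared with vehicle. Per-line IC50 values came from dose-response fits; cohort averages used arithmetic means, with sensitive/resistant grouping based on response to reference MCL1 inhibitors.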

BCLXL = BCLXL (Homo sapiens, UniProt Q07817); test: BCLXL affinity assay (competition binding, qPCR readout); conditions: recombinant BCLXL, 11-point 3-fold dilution series
Description: as §2

[4] = system: drug-resistant cell lines of Table 3; test: Cell line growth retardation assay, resistant cohort; assay type: cell-based, Human; conditions: arithmetic mean of IC50s over the resistant cohort of Table 3, 6 days growth, read-out: AvgRes IC50
Summary of the method: as §3

Chain of MCL1 (Q07820 whole entry): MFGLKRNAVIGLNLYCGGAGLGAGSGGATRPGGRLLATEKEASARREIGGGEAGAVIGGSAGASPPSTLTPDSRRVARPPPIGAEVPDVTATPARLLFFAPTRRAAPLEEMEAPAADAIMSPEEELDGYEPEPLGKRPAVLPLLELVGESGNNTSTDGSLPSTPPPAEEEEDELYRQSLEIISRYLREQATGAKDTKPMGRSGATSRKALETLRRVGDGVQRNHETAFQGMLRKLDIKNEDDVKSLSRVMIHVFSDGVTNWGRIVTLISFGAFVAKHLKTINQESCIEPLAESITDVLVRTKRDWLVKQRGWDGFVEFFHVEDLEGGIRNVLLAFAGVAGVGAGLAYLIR
Chain of BCL2 (P10415 whole entry): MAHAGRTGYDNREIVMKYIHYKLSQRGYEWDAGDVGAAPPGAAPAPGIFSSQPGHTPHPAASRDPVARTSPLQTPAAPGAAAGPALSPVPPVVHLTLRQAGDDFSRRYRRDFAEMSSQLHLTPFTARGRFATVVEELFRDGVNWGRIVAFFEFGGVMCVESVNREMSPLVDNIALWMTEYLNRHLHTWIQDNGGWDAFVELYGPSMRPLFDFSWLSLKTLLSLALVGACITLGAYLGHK
Chain of BCLXL (Q07817 whole entry): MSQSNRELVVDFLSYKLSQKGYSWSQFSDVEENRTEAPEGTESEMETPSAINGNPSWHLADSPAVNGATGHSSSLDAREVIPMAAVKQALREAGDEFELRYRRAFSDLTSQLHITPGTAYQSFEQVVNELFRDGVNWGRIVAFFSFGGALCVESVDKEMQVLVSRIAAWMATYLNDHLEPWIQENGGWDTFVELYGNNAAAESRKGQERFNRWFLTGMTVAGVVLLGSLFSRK

SMILES	MTD at 5 days [1] [mg/kg]	day of study at which treated tumors resumed growth [2] [days]	pKd (MCL1)	pKd (BCL2)	pIC50 ([3]; Homo sapiens, 144 h)	Fold Diff [3]	pKd (BCLXL)	pIC50 ([4]; Homo sapiens, 144 h)	pIC50 [3]	pIC50 [4]
COc1ccccc1-c1nccc(COc2ccccc2C[C@@H](Oc2ncnc3sc(-c4ccc(F)cc4)c(-c4ccc(OCCN5CCN(C)CC5)c(Cl)c4C)c23)C(=O)O)n1 [HY-112218, (R)-2-((5-(3-chloro-2-methyl-4-(2-(4-methylpiperazin-1-yl)ethoxy)phenyl)-6-(4-fluorophenyl)thieno[2,3-d]pyrimidin-4-yl)oxy)-3-(2-((2-(2-methoxyphenyl)pyrimidin-4-yl)methoxy)phenyl)propanoic acid]	~10	~21	–	–	–	–	–	–	–	–
Cc1c(-c2c(-c3cccc4c3ccn4C)ncc3snc(O[C@H](Cc4ccccc4OCc4ccnn4CC(F)(F)F)C(=O)O)c23)ccc(OCCN2CCN(C)CC2)c1Cl (atropisomer, axis not shown) [Compound 15]	–	–	5.82 to 6.30	5.82 to 6.30	< 5.30	− (“−” represents a fold difference less than 10)	< 5.82	< 5.30	–	–
Cc1c(-c2c(-c3cccc4c3CCC4)ncc3snc(O[C@H](Cc4ccccc4OCc4ccnn4CC(F)(F)F)C(=O)O)c23)ccc(OCCN2CCN(C)CC2)c1Cl (atropisomer, axis not shown) [Compound 13]	–	–	< 5.82	< 5.82	< 5.30	− (“−” represents a fold difference less than 10)	< 5.82	< 5.30	–	–
Cc1c(-c2c(-c3cccc4[nH]c(C(F)(F)F)cc34)ncc3snc(O[C@H](Cc4ccccc4OCc4ccnn4CC(F)(F)F)C(=O)O)c23)ccc(OCCN2CCN(C)CC2)c1Cl (atropisomer, axis not shown) [Compound 16]	–	–	< 5.82	< 5.82	< 5.30	− (“−” represents a fold difference less than 10)	< 5.82	< 5.30	–	–
Cc1c(-c2c(-c3cccc(F)c3)ncc3snc(O[C@H](Cc4ccccc4OCc4ccnc(-c5ccncc5)n4)C(=O)O)c23)ccc(OCCN2CCN(C)CC2)c1Cl (atropisomer, axis not shown) [Compound 72]	–	–	≥ 7.00	< 5.82	≥ 6.00	+ (“+” represents a fold difference of 10 or more)	< 5.82	< 5.30	–	–
COc1cccc(-c2ncc3snc(O[C@H](Cc4ccccc4OCc4ccnc(-c5ccccc5OC)n4)C(=O)O)c3c2-c2ccc(OC[C@@H]3CCCN3C)c(Cl)c2C)c1 (atropisomer, axis not shown) [Compound 49]	–	–	≥ 7.00	< 5.82	–	− (“−” represents a fold difference less than 10)	< 5.82	–	5.30 to 6.00	< 5.30
Cc1c(-c2c(-c3ccc(F)s3)ncc3snc(O[C@H](Cc4ccccc4OCc4ccnn4CC(F)(F)F)C(=O)O)c23)ccc(OCCN2CCN(C)CC2)c1Cl (single isomer, unassigned) [Compound 1]	–	–	< 5.82	< 5.82	–	− (“−” represents a fold difference less than 10)	< 5.82	< 5.30	< 5.30	–
Cc1c(-c2c(-c3cccc(F)c3)ncc3snc(O[C@H](Cc4ccccc4)C(=O)O)c23)ccc(OCCN2CCN(C)CC2)c1Cl (atropisomer, axis not shown) [Compound 92]	–	–	5.82 to 6.30	< 5.82	5.30 to 6.00	− (“−” represents a fold difference less than 10)	< 5.82	< 5.30	–	–
Cc1c(-c2c(-c3ccsc3)ncc3snc(O[C@H](Cc4ccccc4OCc4ccnn4CC(F)(F)F)C(=O)O)c23)ccc(OCCN2CCN(C)CC2)c1Cl (atropisomer, axis not shown) [Compound 27]	–	–	6.30 to 7.00	< 5.82	5.30 to 6.00	− (“−” represents a fold difference less than 10)	< 5.82	< 5.30	–	–
Cc1c(-c2c(-c3cccc(F)c3)ncc3snc(O[C@H](Cc4ccccc4OCc4ccnn4CC(F)(F)F)C(=O)O)c23)ccc(OCCN2CCN(C)CC2)c1Cl (atropisomer, axis not shown) [Compound 26]	–	–	6.30 to 7.00	< 5.82	≥ 6.00	+ (“+” represents a fold difference of 10 or more)	< 5.82	< 5.30	–	–
Cc1c(-c2c(-c3ccc(F)cc3)ncc3snc(O[C@H](Cc4ccccc4OCc4ccnn4CC(F)(F)F)C(=O)O)c23)ccc(OCCN2CCN(C)CC2)c1Cl (single isomer, unassigned) [Compound 6]	–	–	6.30 to 7.00	< 5.82	–	− (“−” represents a fold difference less than 10)	< 5.82	< 5.30	5.30 to 6.00	–
Cc1c(-c2c(-c3ccccn3)ncc3snc(O[C@H](Cc4ccccc4OCc4ccnn4CC(F)(F)F)C(=O)O)c23)ccc(OCCN2CCN(C)CC2)c1Cl (atropisomer, axis not shown) [Compound 52]	–	–	5.82 to 6.30	< 5.82	< 5.30	− (“−” represents a fold difference less than 10)	< 5.82	< 5.30	–	–
Cc1c(-c2c(C3CC3)ncc3snc(O[C@H](Cc4ccccc4OCc4ccnn4CC(F)(F)F)C(=O)O)c23)ccc(OCCN2CCN(C)CC2)c1Cl (atropisomer, axis not shown) [Compound 30]	–	–	≥ 7.00	< 5.82	5.30 to 6.00	− (“−” represents a fold difference less than 10)	< 5.82	< 5.30	–	–
